This passage reports relative activity and specific activity results from patent EP3222712A1, “ALCOHOL DEHYDROGENASE FROM PICHIA PASTORIS AND USE THEREOF” (priority 2016, dated 2017).

In the test the target is alcohol dehydrogenase from Pichia pastoris (PPADH) (Komagataella phaffii, UniProt C4R4L0). Nature of the test: photometric assay, reduction of aldehydes and ketones by purified PPADH (NADPH, 340 nm). It counts as biochemical, Pichia pastoris GS 115. To be noted: for relative activity: 38.6 U/mg with benzaldehyde set to 100%; for specific activity: purified PPADH, 10 mM substrate (sample 4: 20 mM), 0.2 mM NADPH, tris HCl pH 7, 25°C. The method, then:
In a first step, crude extract containing recombinant alcohol dehydrogenase from Pichia pastoris via cell disruption of E. coli BL21(DE3) overexpressing in vector pET28a-PPADH carrying an N-terminal 6xHis tag. Cells were resuspended in 10 mM tris HCl buffer (pH 7) to yield a 25% cell suspension and were disrupted by sonification under cooling. Three cycles of 2 min of 25% power output followed by 1 min cooling were used. After repeated centrifugation a cell-free crude extract was obtained. Afterwards the PPADH was purified as described in example 3c).
Determination of the enzymatic activity of the purified PPADH can be determined via a oxidation or reduction reaction. For determination of the reduction the following compounds were used: tris HCl buffer (100 mM, pH 7), 0.2 mM NADPH, 10 mM substrate selected from the aldehydes and ketones as given in Table 2 and 10 µl enzyme (purified PPADH). For determination of the oxidation the following compounds were used: tris HCl buffer (100 mM, pH 9), 0.2 mM NADP^+, 10 mM substrate selected from the alcohols as given in Table 3 and 10 µl enzyme (purified PPADH). The reaction was performed in 1 cm-cuvettes. The compounds were mixed in the cuvette used for the experiment, which was placed in the photometer and data recording was started. The enzyme solution was added only immediately before the start of the measurement. The activity of the enzyme was determined by photometric detection of the concentration of NADPH after a certain time interval. Measurement was carried out at a temperature of 25°C, a wavelength of 340 nm and over a time interval of 1 min. Table 2: enzymatic activity of PPADH regarding the reduction of different substrates determined by photometry

alcohol dehydrogenase from Pichia pastoris (PPADH), sequence (C4R4L0 entry or part of it): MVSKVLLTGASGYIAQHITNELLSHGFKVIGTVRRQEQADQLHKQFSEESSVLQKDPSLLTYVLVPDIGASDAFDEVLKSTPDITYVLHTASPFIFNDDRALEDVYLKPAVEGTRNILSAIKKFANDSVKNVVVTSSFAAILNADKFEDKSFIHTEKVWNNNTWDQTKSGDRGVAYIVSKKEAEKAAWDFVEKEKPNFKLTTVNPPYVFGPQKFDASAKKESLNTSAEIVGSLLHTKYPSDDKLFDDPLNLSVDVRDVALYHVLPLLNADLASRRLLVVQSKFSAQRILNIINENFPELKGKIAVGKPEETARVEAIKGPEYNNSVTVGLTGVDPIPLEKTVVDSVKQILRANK

As to `CC(=O)CC(O)(c1ccccc1)C(F)(F)F` (racemic) [compound 4], the relative activity amounted to 97.2% and the specific activity is on record as 37.5 U/mg.
On to `CCCCC(C)=O` [2-hexanone], for which the specific activity was less than 0.5 U/mg.
In turn, `CCCCCCCC(C)=O` [2-nonanone] came in with a specific activity of less than 0.5 U/mg.
Turning to `CCCCCCC(C)=O` [2-octanone], the specific activity was less than 0.5 U/mg.
`CC1CC(=O)CC(C)(C)C1` (stereo not drawn) [3,3,5-trimethylcyclohexanone] registered a specific activity of less than 0.5 U/mg.
For the compound `CCC(=O)C(O)CC` (stereo not drawn) [4-hydoxy-3-hexanone], the specific activity is recorded as less than 0.5 U/mg.
The compound `COC(C)(C)CC(C)=O` [4-methoxy-4-metyhl-2-pentanone] came in with a specific activity of less than 0.5 U/mg.
With `CC(=O)CC(C)C` [4-methyl-2-pentanone], the specific activity is listed as less than 0.5 U/mg.
The compound `CC(C)=C1CC[C@@H](C)CC1=O` [(+)-pulegon] showed a specific activity of less than 0.5 U/mg.
`C=C(C)[C@@H]1CC=C(C)C(=O)C1` [(-)-carvone] had a specific activity of less than 0.5 U/mg.
`CC(C)[C@@H]1CC[C@@H](C)CC1=O` [(-)-menthone]: the specific activity is listed as less than 0.5 U/mg.
Take `CC(C)=O` [acetone]: the specific activity is on record as less than 0.5 U/mg.
In turn, `CC(=O)CCc1ccccc1` [benzylacetone] gave a specific activity of less than 0.5 U/mg.
As for `O=Cc1ccccc1` [compound 1, benzaldehyde], the relative activity is recorded as 100.0% and the specific activity turned out to be 38.6 U/mg.
Turning to `CC(=O)c1ccccc1` [compound 2], the relative activity was 0.2% and the specific activity turned out to be 0.06 U/mg.
As for `O=C(c1ccccc1)C(F)(F)F` [compound 3], the relative activity came out at 0.3% and the specific activity was 0.10 U/mg.
On to `CCCC=O` [compound 5], for which the relative activity was 176.2% and the specific activity was 68.0 U/mg.
Regarding `CCCC(C)C=O` (stereo not drawn) [compound 6], the relative activity is listed as 248.9% and the specific activity was 96.1 U/mg.
For the compound `CCCCCC=O` [compound 7], the relative activity was 73.9% and the specific activity was 28.5 U/mg.
On the same counts, the results for `CCC/C=C/C=O` [compound 8] are 97.2% and 37.5 U/mg.
Turning to `CC(C)=CCC/C(C)=C/C=O` [compound 9], the relative activity is reported as 46.1% and the specific activity was 17.8 U/mg.
For `CC(C)=CCCC(C)CC=O` (stereo not drawn) [compound 10], the relative activity came out at 71.9% and the specific activity was 27.8 U/mg.
For the compound `CCOC(=O)C(Cl)C(C)=O` (stereo not drawn) [compound 11], the relative activity is recorded as 14.7% and the specific activity is reported as 5.7 U/mg.
For `CCOC(=O)CC(=O)CCl` [compound 12], the relative activity worked out at 98.3% and the specific activity worked out at 38.0 U/mg.
Turning to `CCCC(=O)CC(=O)OCC` [compound 13], the relative activity was 1.3% and the specific activity came out at 0.5 U/mg.
Taken in the same sequence, the figures for `CC(=O)CC(C)=O` [compound 14] were 8.5% and 3.3 U/mg.
As for `O=C1C=CCCC1` [cyclohexen-1-on], the specific activity was less than 0.5 U/mg.
On the same count and under the same terms, the result for `CC1(C)COC(=O)C1=O` [dihydro-4,4-dimethyl-2,3-furandion] reads less than 0.5 U/mg.
Regarding `CCOC(C)=O` [ethylacetate], the specific activity was less than 0.5 U/mg.
Same read-out and setting: the result for `CC12CCC(C1)C(C)(C)C2=O` (stereo not drawn) [fenchon] reads less than 0.5 U/mg; that for `CCC(=O)c1ccccc1` [propiophenone], less than 0.5 U/mg.
